{"source": "ChEMBL document CHEMBL1134355", "about": "(J Med Chem, 2001)", "key": {"[1]": {"target": "T1, Steroid 17-alpha-hydroxylase/17,20 lyase (Homo sapiens, UniProt P05093)", "T1 sequence (P05093 whole entry)": "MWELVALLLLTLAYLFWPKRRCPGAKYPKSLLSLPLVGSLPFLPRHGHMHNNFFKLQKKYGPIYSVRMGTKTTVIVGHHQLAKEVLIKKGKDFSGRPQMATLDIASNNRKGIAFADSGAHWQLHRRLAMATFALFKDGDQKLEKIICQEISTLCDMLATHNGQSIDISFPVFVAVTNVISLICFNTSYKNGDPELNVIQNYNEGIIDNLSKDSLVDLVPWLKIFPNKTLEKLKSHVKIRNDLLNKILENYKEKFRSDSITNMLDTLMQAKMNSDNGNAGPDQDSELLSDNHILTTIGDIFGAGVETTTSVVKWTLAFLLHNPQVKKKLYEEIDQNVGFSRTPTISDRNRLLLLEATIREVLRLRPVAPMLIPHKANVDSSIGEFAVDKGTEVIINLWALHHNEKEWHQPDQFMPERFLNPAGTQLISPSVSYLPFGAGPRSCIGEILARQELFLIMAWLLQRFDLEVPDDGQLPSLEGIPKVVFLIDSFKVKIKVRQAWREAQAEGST"}, "Aromatase": {"target": "T2, Aromatase (Homo sapiens, UniProt P11511)", "T2 sequence (P11511 whole entry)": "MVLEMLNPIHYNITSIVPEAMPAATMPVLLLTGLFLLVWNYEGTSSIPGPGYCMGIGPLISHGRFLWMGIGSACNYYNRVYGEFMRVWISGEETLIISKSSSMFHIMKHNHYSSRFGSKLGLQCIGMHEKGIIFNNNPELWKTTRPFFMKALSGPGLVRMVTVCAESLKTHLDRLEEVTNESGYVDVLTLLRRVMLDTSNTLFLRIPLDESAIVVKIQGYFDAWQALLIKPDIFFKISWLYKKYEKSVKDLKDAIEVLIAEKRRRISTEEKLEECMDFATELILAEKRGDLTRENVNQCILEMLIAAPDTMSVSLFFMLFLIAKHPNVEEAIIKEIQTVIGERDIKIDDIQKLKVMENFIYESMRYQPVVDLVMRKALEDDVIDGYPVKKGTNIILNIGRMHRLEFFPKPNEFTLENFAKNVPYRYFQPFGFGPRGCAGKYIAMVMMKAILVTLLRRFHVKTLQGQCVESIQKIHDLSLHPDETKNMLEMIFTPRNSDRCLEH"}, "[2]": {"target": "T1, Steroid 17-alpha-hydroxylase/17,20 lyase", "remark": "listed apart in the source"}}, "data": [{"smiles": "O=c1ccoc2cc(Cn3cnnc3)ccc12", "values": [{"measurement": "inhibition at 2.5 µM", "setting": "[1]", "result": 5, "unit": "%"}]}, {"smiles": "COc1ccc2c(=O)c(Cn3cnnc3)c(-c3ccccc3)oc2c1", "values": [{"measurement": "inhibition at 25 µM", "setting": "Aromatase", "result": 21, "unit": "%"}, {"measurement": "inhibition at 2.5 µM", "setting": "[1]", "result": 14, "unit": "%"}]}, {"smiles": "COc1ccc2c(=O)c(Cn3ccnc3)c(-c3ccccc3)oc2c1", "values": [{"measurement": "inhibition at 2.5 µM", "setting": "[1]", "result": 44, "unit": "%"}]}, {"smiles": "O=c1ccoc2cc(Cn3ccnc3)ccc12", "values": [{"measurement": "inhibition at 2.5 µM", "setting": "[1]", "result": 9, "unit": "%"}]}, {"smiles": "O=c1c2ccccc2oc2c(Cn3ccnc3)ccc([N+](=O)[O-])c12", "values": [{"measurement": "inhibition at 2.5 µM", "setting": "[1]", "result": 4, "unit": "%"}, {"measurement": "Km", "setting": "Homo sapiens", "result": 0.0651, "unit": "µM"}]}, {"smiles": "N#Cc1ccc(Cn2ccnc2)c2occc(=O)c12", "values": [{"measurement": "inhibition at 2.5 µM", "setting": "[1]", "result": 3, "unit": "%"}]}, {"smiles": "O=c1ccoc2c(Cn3ccnc3)ccc(Br)c12", "values": [{"measurement": "inhibition at 2.5 µM", "setting": "[1]", "result": 26, "unit": "%"}]}, {"smiles": "O=c1c2ccccc2oc2c([N+](=O)[O-])ccc(Cn3ccnc3)c12", "values": [{"measurement": "IC50", "setting": "[2]", "result": 130, "unit": "nM"}, {"measurement": "inhibition at 2.5 µM", "setting": "[1]", "result": 94, "unit": "%"}]}, {"smiles": "O=c1c2ccccc2oc2cc(Cn3ccnc3)ccc12", "values": [{"measurement": "inhibition at 2.5 µM", "setting": "[1]", "result": 33, "unit": "%"}]}, {"smiles": "O=c1ccoc2c(Cn3ccnc3)ccc([N+](=O)[O-])c12", "values": [{"measurement": "inhibition at 2.5 µM", "setting": "[1]", "result": 5, "unit": "%"}]}, {"smiles": "O=c1c2ccccc2oc2cc(Cn3cnnc3)ccc12", "values": [{"measurement": "inhibition at 25 µM", "setting": "Aromatase", "result": 27, "unit": "%"}, {"measurement": "inhibition at 2.5 µM", "setting": "[1]", "result": 8, "unit": "%"}]}, {"smiles": "N#Cc1ccc(Cn2ccnc2)c2oc3ccccc3c(=O)c12", "values": [{"measurement": "inhibition at 2.5 µM", "setting": "[1]", "result": 14, "unit": "%"}]}, {"smiles": "O=c1c2ccccc2oc2c(Cn3ccnc3)ccc(Br)c12", "values": [{"measurement": "inhibition at 2.5 µM", "setting": "[1]", "result": 38, "unit": "%"}]}, {"smiles": "N#Cc1ccc(Cn2ccnc2)c2c(=O)c3ccccc3oc12", "values": [{"measurement": "IC50", "setting": "[2]", "result": 220, "unit": "nM"}, {"measurement": "inhibition at 2.5 µM", "setting": "[1]", "result": 92, "unit": "%"}]}, {"smiles": "O=c1c2ccccc2oc2c(Br)ccc(Cn3ccnc3)c12", "values": [{"measurement": "IC50", "setting": "[2]", "result": 42, "unit": "nM"}, {"measurement": "inhibition at 2.5 µM", "setting": "[1]", "result": 98, "unit": "%"}]}]}
